Experimental data as given in BigSolDB 2.1.

Cc1nnc(C(C)C)n1C1C[C@H]2CC[C@@H](C1)N2CC[C@H](NC(=O)C1CCC(F)(F)CC1)c1ccccc1 (stereo not given in full)
solubility (mole fraction)
Details	278.2 K	283.2 K	288.2 K	293.2 K	298.2 K	303.2 K	308.2 K	313.2 K	318.2 K	323.2 K
in 2-butanone	0.000179	0.000262	0.000349	0.000491	0.000715	0.00102	0.00137	0.00193	0.00257	0.00351
in 2-pentanone	0.000152	0.000224	0.000296	0.000418	0.000607	0.00087	0.00119	0.00168	0.00229	0.00316
in DMF	3.5e-05	5.6e-05	7.6e-05	0.000112	0.000168	0.000244	0.000341	0.000507	0.000689	0.00101
in DMSO	1.4e-05	2.4e-05	3.7e-05	5.6e-05	8.4e-05	0.000128	0.000173	0.000263	0.000358	0.00053
in ethanol	0.000281	0.000404	0.00052	0.000716	0.00102	0.00144	0.00189	0.00263	0.00344	0.00461
in n-butanol	0.0002	0.000293	0.000383	0.000533	0.000778	0.00112	0.0015	0.00212	0.00282	0.00387
in n-propanol	0.00021	0.00031	0.00042	0.000609	0.00088	0.00124	0.00167	0.00235	0.00311	0.00421
in water	6e-06	9e-06	1.2e-05	1.7e-05	2.5e-05	3.6e-05	4.8e-05	6.9e-05	9.2e-05	0.000129
